The text below walks through data of PMC3371172 (Chemical biology & drug design, 2012).

Non-standard residues stand in square brackets, D forms with d. Residues, ends and D or L forms follow the SMILES beside them. No end group written: not given here.

In assay [1] the test system is HUVEC. It is filed as cell-based, human.
The subject of assay [2] is HUVEC. The following applies: 20 µM; cited from earlier work.
For assay [3], the system named is HUVEC. The following applies: 20 µM; cited from earlier work. This is another data set of the same source.

In general, IC50 refers to the midpoint of a concentration-inhibition curve. Low readings indicate greater potency in that assay, high ones weaker potency in that assay.

For `CC[C@H](C)[C@H](NC(=O)[C@H](CC(N)=O)NC(=O)[C@@H](NC(=O)[C@H](Cc1ccccc1)NC(=O)[C@@H](C)NC(=O)[C@H](Cc1ccccc1)NC(=O)[C@@H]1CCCN1C(=O)[C@H](CCSC)NC(=O)[C@@H](NC(=O)[C@H](CO)NC(=O)[C@H](Cc1ccccc1)NC(=O)[C@H](CCCNC(=N)N)NC(=O)[C@H](CCCNC(=N)N)NC(=O)[C@@H](N)CC(C)C)[C@@H](C)O)[C@@H](C)CC)C(=O)N[C@@H](CC(N)=O)C(=O)N[C@@H](CC(N)=O)C(=O)N[C@H](C(=O)N[C@H](C(=O)N[C@@H](CC(N)=O)C(=O)N[C@@H](Cc1ccccc1)C(N)=O)[C@@H](C)CC)C(C)C` [SP2034] (H-LRRFSTMPF[dA]FININNVINF-NH2), 0.54 ± 0.19 µM corresponded to half-maximal inhibition in the assay on HUVEC [1] (IC50).

Regarding LRRFSTMPFMFCNINNVCNF [SP2000], the “inhibition of HUVEC proliferation” value in the assay with HUVEC [2] is 70%. For the same compound, the “inhibition of HUVEC migration” value in the assay on HUVEC [3] is 60%.

Compound LRRFSTMPFMFININNVINF-NH2 [SP2024] returned an IC50 in the assay on HUVEC [1] of 7.45 ± 5.7 µM.
